# Patent US11959083B2, “Immunosuppression-reverting oligonucleotides inhibiting the expression of CD39” (Secarna Pharmaceuticals GmbH & Co. KG, priority 2016, dated 2024)
# l = locked nucleic acid (LNA); d = 2'-deoxy (DNA)
# Target: T1, hCD39 (Homo sapiens, UniProt P49961)
# T1 construct: endogenous in cells; host or cells: JIYOYE cells
# T1 sequence (P49961 1-510): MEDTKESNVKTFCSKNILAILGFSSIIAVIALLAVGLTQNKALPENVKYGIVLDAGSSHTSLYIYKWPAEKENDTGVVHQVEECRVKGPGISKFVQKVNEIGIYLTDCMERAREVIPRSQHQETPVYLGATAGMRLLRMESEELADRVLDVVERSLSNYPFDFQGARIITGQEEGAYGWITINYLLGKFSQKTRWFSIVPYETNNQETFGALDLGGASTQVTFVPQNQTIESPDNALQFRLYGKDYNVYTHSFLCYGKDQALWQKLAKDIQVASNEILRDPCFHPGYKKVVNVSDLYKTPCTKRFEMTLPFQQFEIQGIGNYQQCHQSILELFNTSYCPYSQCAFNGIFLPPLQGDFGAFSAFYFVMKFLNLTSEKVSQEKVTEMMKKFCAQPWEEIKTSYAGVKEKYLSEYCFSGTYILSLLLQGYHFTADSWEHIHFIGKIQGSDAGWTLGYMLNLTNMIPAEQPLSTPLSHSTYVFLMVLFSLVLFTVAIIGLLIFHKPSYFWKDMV
# Test: ATP degradation in JIYOYE cells after hCD39 knockdown (ATP Bioluminescence Assay)
# Assay type: cell-based
# Settings: 5 μM oligonucleotide 6 days or 20 μM ARL67156 1 h; 2 μM ATP added
# Method: FIG. 10A-10C depict effects of hCD39 knockdown on viability and ATP concentration in JIYOYE cells. JIYOYE cells were treated with the indicated antisense oligonucleotide A04040H (SEQ ID No.3) or neg1 for 6 days in total at 5 μM. Medium was replaced with fresh oligonucleotide-containing medium after 3 days and hCD39 protein knockdown efficacy was analyzed on day 6 by flow cytometry. Residual hCD39 expression and viability of oligonucleotide-treated cells is depicted compared to untreated cells (FIG. 10A-10B). After 6 days, 20 μM of the CD39 small molecular inhibitor ARL67156 trisodium salt was added to no ASO treated cells and incubated for 1 h at 37° C. Then, 2 μM of ATP was added to cells or cell culture medium without cells from each condition and ATP concentration of cell supernatants or cell culture medium was determined after 30 min using the ATP Bioluminescence Assay Kit (Roche) (FIG. 10C).
# Adenosine is one major immunosuppressive molecule generated during ATP degradation by hCD39. ATP can be detected by an ATP Bioluminescence Assay (ATP Bioluminescence Assay Kit CLS II; Roche). JIYOYE cells were treated with 5 μM antisense oligonucleotide A04040H (SEQ ID No. 3) or the negative control oligonucleotide neg1 for 6 days (3+3). After 3 days, RPMI-1640 medium was replaced with fresh RPMI-1640 medium containing 5 μM of oligonucleotide. Protein knockdown efficacy (FIG. 10A) and viability (FIG. 10B) were analyzed after 6 days by flow cytometry. […] The same day, cells that were not treated with any antisense oligonucleotide were incubated for 1 hr at 37° C. with 20 μM of the CD39 small molecular inhibitor ARL67156 trisodium salt (TOCRIS). Then, 2 μM of ATP was added to cells or cell culture medium without cells derived from each condition and ATP concentration was measured in the cell supernatants or in cell culture medium after 30 min. […] Table 14 presents the effect of hCD39 knockdown on relative ATP levels in the cell culture supernatants of JIYOYE cells: […]
row,Compound,Relative ATP levels in supernatants of JIYOYE cells 30 minutes after addition of ATP (vs. Medium control)
1,CCN(CC)c1ncnc2c1ncn2[C@@H]1O[C@H](COP(=O)(O)OP(=O)(O)C(Br)(Br)P(=O)(O)O)[C@@H](O)[C@H]1O [ARL67156],0.38

# System: human CD8+ T cells
# Test: Proliferation and absolute cell numbers of human CD8+ T cells in presence or absence of extracellular ATP
# Assay type: cell-based
# Settings: absence of extracellular ATP; 5 μM oligonucleotide 5 days or 20 μM ARL67156 24 h; vs vehicle
# Method: FIG. 12A-12C depict human CD8^+ T cells which were labelled with cell proliferation dye, activated with anti-CD3 and treated with 5 μM of the antisense oligonucleotide A04040H (black column) or the control oligonucleotide S6 (white column) for a total treatment time of 5 days. In the vehicle control (striped column), cells were activated with anti-CD3 only. Subsequently, 400 μM of ATP or vehicle were added to cells on day 3 and day 4 after start of oligonucleotide treatment. Furthermore, as additional control, the small molecular CD39-inhibitor ARL67156 trisodium salt was added at 20 μM to cells on day 4, for an incubation time of 24 h (checked column). On day 5 after start of oligonucleotide treatment, (FIG. 12A) CD39 protein expression, (FIG. 12B) proliferation and (FIG. 12C) absolute cell numbers of CD8^+ T cells were analyzed using Flow Cytometry. Depicted is the mean of triplicate wells+/−SD.
# In cancer, ATP is released from tumor cells for example after cell death induced by chemotherapy or radiation therapy. Since the CD39-CD73 axis plays an important role for T cell function the effects of A04040H on T cell proliferation in the presence or absence of extracellular ATP were investigated. Human CD8^+ T cells were labelled with cell proliferation dye, activated with anti-CD3 and treated with 5 μM of the antisense oligonucleotide A04040H or the control oligonucleotide S6 for a total treatment time of 5 days. In the vehicle control, cells were activated with anti-CD3 only. Subsequently, 400 μM of ATP or vehicle were added to cells on day 3 and day 4 after start of oligonucleotide treatment. Furthermore, as additional control, the small molecular CD39-inhibitor ARL67156 trisodium salt was added at 20 μM to cells on day 4 for an incubation time of 24 h. On day 5 after start of oligonucleotide treatment, CD39 protein expression, proliferation, and absolute cell numbers of CD8^+ T cells were analyzed using Flow Cytometry.
Compound,absolute cell numbers of CD8+ T cells,proliferation of CD8+ T cells
CCN(CC)c1ncnc2c1ncn2[C@@H]1O[C@H](COP(=O)(O)OP(=O)(O)C(Br)(Br)P(=O)(O)O)[C@@H](O)[C@H]1O [ARL67156],no differences,no differences

# Same assay, conditions: supplementation with 400 μM of ATP; 5 μM oligonucleotide 5 days or 20 μM ARL67156 24 h
Compound,absolute numbers of CD8+ T cells,proliferation of CD8+ T cells
CCN(CC)c1ncnc2c1ncn2[C@@H]1O[C@H](COP(=O)(O)OP(=O)(O)C(Br)(Br)P(=O)(O)O)[C@@H](O)[C@H]1O [ARL67156],significantly diminished,reduced proliferation

# System: mCD39 mRNA
# Test: mCD39 mRNA knockdown efficacy screen in A20 cells (single dose, gymnotic delivery, QuantiGene Singleplex)
# Assay type: cell-based, mouse
# Settings: 10 μM, three days, normalized to HPRT1
# Method: FIG. 14-1 and 14-2 show mCD39 mRNA knockdown efficacy of mCD39 antisense oligonucleotides in the murine cancer cell line A20 (mouse B cell lymphoma). A20 cells were treated with a single dose of 10 μM of the respective antisense oligonucleotide. As negative control, cells were treated with neg1, an antisense oligonucleotide having the sequence CGTTTAGGCTATGTACTT (SEQ ID NO:99). Residual mCD39 mRNA expression relative to untreated cells is depicted. Expression values were normalized to expression of the housekeeping gene HPRT1.
# In order to analyze the efficacy of mCD39 antisense oligonucleotides with regard to the knockdown of mCD39 mRNA expression in a cancer cell line, A20 (mouse B cell lymphoma, ATCC) cells were treated with a single dose (concentration: 10 μM without addition of any transfection reagent; this process is called gymnotic delivery) of the respective antisense oligonucleotide as indicated in FIG. 14. As control, cells were treated with neg1, an antisense oligonucleotide having the sequence CGTTTAGGCTATGTACTT (SEQ ID NO:99). mCD39 and HPRT1 mRNA expression was analyzed after three days using the QuantiGene Singleplex assay (Affymetrix) and mCD39 expression values were normalized to HPRT1 expression values.
row,Compound,Relative mCD39 mRNA expression (compared to non-treated cells)
1,"+T*+A*+C*A*T*T*T*C*T*T*A*C*T*C*+G*+T*+T (antisense TACATTTCTTACTCGTT; sugars from the 5' end l3 d11 l3, all phosphorothioate, methylation of C not given here) [A04033MR]",0.12
2,"+C*+G*+T*T*G*C*T*G*T*C*T*T*T*G*+A*+T*+C (antisense CGTTGCTGTCTTTGATC; sugars from the 5' end l3 d11 l3, all phosphorothioate, methylation of C not given here) [A04031MR]",0.14
3,"+A*+G*+T*A*A*T*C*C*A*C*C*C*+A*+T*+A (antisense AGTAATCCACCCATA; sugars from the 5' end l3 d9 l3, all phosphorothioate, methylation of C not given here) [A04001MR]",0.02
4,"+A*+G*+T*T*A*T*A*G*C*C*T*T*G*+C*+A*+G (antisense AGTTATAGCCTTGCAG; sugars from the 5' end l3 d10 l3, all phosphorothioate, methylation of C not given here) [A04017MR]",0.07
5,"+G*+A*+C*C*T*T*T*C*A*C*T*T*G*G*C*A*+T (antisense GACCTTTCACTTGGCAT; sugars from the 5' end l3 d13 l1, all phosphorothioate, methylation of C not given here) [A04023MR]",0.03
6,"+G*+T*+T*C*G*T*A*G*T*C*T*C*+C*+A*+G (antisense GTTCGTAGTCTCCAG; sugars from the 5' end l3 d9 l3, all phosphorothioate, methylation of C not given here) [A04003MR]",0.07
7,"+C*+A*+C*T*G*T*T*C*G*T*A*G*T*+C*+T*+C (antisense CACTGTTCGTAGTCTC; sugars from the 5' end l3 d10 l3, all phosphorothioate, methylation of C not given here) [A04014MR]",0.20
8,"+G*+T*+A*C*A*G*G*T*T*G*G*T*G*+T*+G*+A (antisense GTACAGGTTGGTGTGA; sugars from the 5' end l3 d10 l3, all phosphorothioate, methylation of C not given here) [A04009MR]",0.89
9,"+C*+A*+C*A*T*T*A*G*C*T*G*C*+A*+C*+G (antisense CACATTAGCTGCACG; sugars from the 5' end l3 d9 l3, all phosphorothioate, methylation of C not given here) [A04007MR]",0.07
10,"+A*+G*+A*T*C*C*A*A*A*G*C*G*C*+C*+A*+A (antisense AGATCCAAAGCGCCAA; sugars from the 5' end l3 d10 l3, all phosphorothioate, methylation of C not given here) [A04013MR]",0.06
11,"+G*+A*+T*C*C*A*A*A*G*C*G*C*+C*+A*+A (antisense GATCCAAAGCGCCAA; sugars from the 5' end l3 d9 l3, all phosphorothioate, methylation of C not given here) [A04002MR]",0.06
12,"+A*+T*+C*C*A*A*A*G*C*G*C*C*A*A*+A*+G*+G (antisense ATCCAAAGCGCCAAAGG; sugars from the 5' end l3 d11 l3, all phosphorothioate, methylation of C not given here) [A04026MR]",0.04
13,"+G*+G*+T*G*G*C*A*C*T*G*T*T*+C*+G*+T (antisense GGTGGCACTGTTCGT; sugars from the 5' end l3 d9 l3, all phosphorothioate, methylation of C not given here) [A04005MR]",0.15
14,"+G*+T*+T*A*T*A*G*C*C*T*T*G*+C*+A*+G (antisense GTTATAGCCTTGCAG; sugars from the 5' end l3 d9 l3, all phosphorothioate, methylation of C not given here) [A04006MR]",0.06
